Assay results published in paper PMC5218480 (PLoS ONE, 2017).

System: MV-4-11 cells
Test: Gene expression microarray analysis (Affymetrix PrimeView) and GSEA
Assay type: cell-based, human
Parameters: RFU PODN (11730768_x_at) / Fold change /veh PODN (11730768_x_at) / RFU LINC00158 (11744669_a_at) / Fold change /veh LINC00158 (11744669_a_at) / RFU DUSP10 (11751237_a_at) / Fold change /veh DUSP10 (11751237_a_at) / RFU ID3 (11757404_x_at) / Fold change /veh ID3 (11757404_x_at) / RFU PLEKHG5 (11737974_s_at) / Fold change /veh PLEKHG5 (11737974_s_at) / RFU LRRC4B (11730491_at) / Fold change /veh LRRC4B (11730491_at) / RFU GIMAP4 (11747438_a_at) / Fold change /veh GIMAP4 (11747438_a_at) / RFU KRT8 (11758183_x_at) / Fold change /veh KRT8 (11758183_x_at) / RFU CNN1 (11734310_a_at) / Fold change /veh CNN1 (11734310_a_at) / RFU VPS37D (11726825_at) / Fold change /veh VPS37D (11726825_at) / RFU C10orf10 (11716522_x_at) / Fold change /veh C10orf10 (11716522_x_at) / RFU KIR2DL2 /// KIR2DL4 /// KIR2DL5A /// KIR2DL5B /// KIR2DS1 /// KIR2DS2 /// KIR2DS3 /// KIR2DS4 /// KIR3DL3 /// KIR3DL3 /// KIR3DS1 (11738374_at) / Fold change /veh KIR2DL2 /// KIR2DL4 /// KIR2DL5A /// KIR2DL5B /// KIR2DS1 /// KIR2DS2 /// KIR2DS3 /// KIR2DS4 /// KIR3DL3 /// KIR3DL3 /// KIR3DS1 (11738374_at) / RFU C1QL1 (11718748_at) / Fold change /veh C1QL1 (11718748_at) / RFU TMPRSS4 (11747572_a_at) / Fold change /veh TMPRSS4 (11747572_a_at) / RFU HAMP (11756126_x_at) / Fold change /veh HAMP (11756126_x_at) / RFU RNFT2 (11725882_a_at) / Fold change /veh RNFT2 (11725882_a_at) / RFU NR4A2 (11747474_a_at) / Fold change /veh NR4A2 (11747474_a_at) / RFU ABCC12 (11746883_a_at) / Fold change /veh ABCC12 (11746883_a_at) / RFU TMEM136 (11760407_x_at) / Fold change /veh TMEM136 (11760407_x_at) / RFU CLDN22 /// WWC2 (11732394_at) / Fold change /veh CLDN22 /// WWC2 (11732394_at) / RFU HLA-DPB1 (11760878_x_at) / Fold change /veh HLA-DPB1 (11760878_x_at) / RFU SPINT1 (11716480_a_at) / Fold change /veh SPINT1 (11716480_a_at) / RFU GAP43 (11754022_s_at) / Fold change /veh GAP43 (11754022_s_at) / RFU A4GNT (11735810_at) / Fold change /veh A4GNT (11735810_at) / RFU PRB3 (11715151_x_at) / Fold change /veh PRB3 (11715151_x_at) / RFU TUBB4B (11761932_at) / Fold change /veh TUBB4B (11761932_at) / RFU CAPN14 (11732068_a_at) / Fold change /veh CAPN14 (11732068_a_at) / RFU TMCC2 (11721928_a_at) / Fold change /veh TMCC2 (11721928_a_at) / RFU IRGQ (11745062_a_at) / Fold change /veh IRGQ (11745062_a_at) / RFU FAM174B (11720279_a_at) / Fold change /veh FAM174B (11720279_a_at) / RFU TMPRSS4 (11748680_a_at) / Fold change /veh TMPRSS4 (11748680_a_at) / RFU FAM212B (11763350_a_at) / Fold change /veh FAM212B (11763350_a_at) / RFU PLEKHG5 (11743358_a_at) / Fold change /veh PLEKHG5 (11743358_a_at) / RFU ZSCAN30 (11745921_a_at) / Fold change /veh ZSCAN30 (11745921_a_at) / RFU CMKLR1 (11741424_a_at) / Fold change /veh CMKLR1 (11741424_a_at) / RFU LOC101060620 /// MAPK8IP1 (11723275_at) / Fold change /veh LOC101060620 /// MAPK8IP1 (11723275_at) / RFU SPTSSB (11747773_x_at) / Fold change /veh SPTSSB (11747773_x_at) / RFU PRSS12 (11739890_at) / Fold change /veh PRSS12 (11739890_at) / RFU BIN1 (11741810_x_at) / Fold change /veh BIN1 (11741810_x_at) / RFU WNT11 (11732464_a_at) / Fold change /veh WNT11 (11732464_a_at) / RFU C10orf10 (11716521_a_at) / Fold change /veh C10orf10 (11716521_a_at) / RFU C5orf56 (11738089_at) / Fold change /veh C5orf56 (11738089_at) / RFU CYB561 (11721691_x_at) / Fold change /veh CYB561 (11721691_x_at) / RFU ANKRD19P (11752326_a_at) / Fold change /veh ANKRD19P (11752326_a_at) / RFU OR2T12 /// OR2T33 /// OR2T8 (11738714_s_at) / Fold change /veh OR2T12 /// OR2T33 /// OR2T8 (11738714_s_at) / RFU VCAN (11748164_a_at) / Fold change /veh VCAN (11748164_a_at) / RFU JSRP1 (11732532_at) / Fold change /veh JSRP1 (11732532_at) / RFU KRTAP10-11 (11738290_x_at) / Fold change /veh KRTAP10-11 (11738290_x_at) / RFU MYO3A (11730013_a_at) / Fold change /veh MYO3A (11730013_a_at) / RFU EBF3 (11725865_a_at) / Fold change /veh EBF3 (11725865_a_at) / RFU CAMK2N1 (11719241_x_at) / Fold change /veh CAMK2N1 (11719241_x_at) / RFU C5orf56 (11738088_a_at) / Fold change /veh C5orf56 (11738088_a_at) / RFU OLFML3 (11715873_a_at) / Fold change /veh OLFML3 (11715873_a_at) / RFU LOC100653217 /// NTM (11731650_a_at) / Fold change /veh LOC100653217 /// NTM (11731650_a_at) / RFU MAPK11 (11762145_a_at) / Fold change /veh MAPK11 (11762145_a_at) / RFU FIZ1 (11724087_x_at) / Fold change /veh FIZ1 (11724087_x_at) / RFU OASL (11726364_x_at) / Fold change /veh OASL (11726364_x_at) / RFU SOX15 (11748057_x_at) / Fold change /veh SOX15 (11748057_x_at) / RFU CD79A (11719716_a_at) / Fold change /veh CD79A (11719716_a_at) / RFU HIST1H1D (11736915_at) / Fold change /veh HIST1H1D (11736915_at) / RFU CASKIN2 (11723855_a_at) / Fold change /veh CASKIN2 (11723855_a_at) / RFU LOC730098 (11760151_x_at) / Fold change /veh LOC730098 (11760151_x_at) / RFU OR4N2 (11742367_at) / Fold change /veh OR4N2 (11742367_at) / RFU PRRT2 (11749266_a_at) / Fold change /veh PRRT2 (11749266_a_at) / RFU SNX32 (11753110_a_at) / Fold change /veh SNX32 (11753110_a_at) / RFU CDHR5 (11726645_a_at) / Fold change /veh CDHR5 (11726645_a_at) / RFU RCAN1 (11760418_a_at) / Fold change /veh RCAN1 (11760418_a_at) / RFU FAM167A (11723789_a_at) / Fold change /veh FAM167A (11723789_a_at) / RFU FAM26E (11764081_at) / Fold change /veh FAM26E (11764081_at) / RFU ISYNA1 (11749810_s_at) / Fold change /veh ISYNA1 (11749810_s_at) / RFU ACY1 (11761880_at) / Fold change /veh ACY1 (11761880_at) / RFU 11764098_at / Fold change /veh 11764098_at / RFU SAMD14 (11745864_x_at) / Fold change /veh SAMD14 (11745864_x_at) / RFU NPB (11741838_a_at) / Fold change /veh NPB (11741838_a_at) / RFU TMPRSS6 (11731388_a_at) / Fold change /veh TMPRSS6 (11731388_a_at) / RFU KRTAP10-2 (11738614_at) / Fold change /veh KRTAP10-2 (11738614_at) / RFU ARHGAP8 /// PRR5-ARHGAP8 (11727945_x_at) / Fold change /veh ARHGAP8 /// PRR5-ARHGAP8 (11727945_x_at) / RFU KRTAP5-7 /// NADSYN1 (11734609_at) / Fold change /veh KRTAP5-7 /// NADSYN1 (11734609_at) / RFU RASL12 (11751679_a_at) / Fold change /veh RASL12 (11751679_a_at) / RFU CDKN2B (11736163_a_at) / Fold change /veh CDKN2B (11736163_a_at) / RFU PRF1 (11729649_at) / Fold change /veh PRF1 (11729649_at) / RFU, ZNF638 /// ZNF638-IT1 / Fold change vs veh, ZNF638 /// ZNF638-IT1 / RFU, PANK3 / Fold change vs veh, PANK3 / RFU, SH3YL1 / Fold change vs veh, SH3YL1 / RFU, ZEB2 / Fold change vs veh, ZEB2 / RFU, NRIP1 / Fold change vs veh, NRIP1 / RFU, PTTG1IP / Fold change vs veh, PTTG1IP / RFU, CAPN2 / Fold change vs veh, CAPN2 / RFU, MED14 / Fold change vs veh, MED14 / RFU, SNORA58 / Fold change vs veh, SNORA58 / RFU, C1orf63 / Fold change vs veh, C1orf63 / RFU, LRRFIP1 / Fold change vs veh, LRRFIP1 / RFU, NDUFAF7 / Fold change vs veh, NDUFAF7 / RFU, SLC12A2 / Fold change vs veh, SLC12A2 / RFU, IBTK / Fold change vs veh, IBTK / RFU, ESF1 / Fold change vs veh, ESF1 / Fold change vs veh, TMEM50B / RFU, TAOK1 / Fold change vs veh, TAOK1 / RFU, ACBD3 / Fold change vs veh, ACBD3 / RFU, TMA16 / Fold change vs veh, TMA16 / RFU, RWDD3 / Fold change vs veh, RWDD3 / RFU, BCAT1 / Fold change vs veh, BCAT1 / RFU, EDEM3 / Fold change vs veh, EDEM3 / RFU, TMEM33 / Fold change vs veh, TMEM33 / RFU, WDR75 / Fold change vs veh, WDR75 / RFU, AHCTF1 / Fold change vs veh, AHCTF1 / RFU, TFRC / Fold change vs veh, TFRC / RFU, ZDHHC17 / Fold change vs veh, ZDHHC17 / RFU, NOM1 / Fold change vs veh, NOM1 / RFU, ARL8B / Fold change vs veh, ARL8B / RFU, ZBTB11 / Fold change vs veh, ZBTB11 / RFU, TAMM41 / Fold change vs veh, TAMM41 / RFU, KIAA1704 /// LOC100996395 / Fold change vs veh, KIAA1704 /// LOC100996395 / RFU, ING1 / Fold change vs veh, ING1 / RFU, TRMT61B / Fold change vs veh, TRMT61B / RFU, FUBP3 / Fold change vs veh, FUBP3 / RFU, TP53 / Fold change vs veh, TP53 / RFU, TNKS2 / Fold change vs veh, TNKS2 / RFU, ZFP14 / Fold change vs veh, ZFP14 / RFU, ACTR2 / Fold change vs veh, ACTR2 / RFU, PPP3R1 / Fold change vs veh, PPP3R1 / RFU, PIK3R1 / Fold change vs veh, PIK3R1 / RFU, HNRNPA1 / Fold change vs veh, HNRNPA1 / RFU, RNF170 / Fold change vs veh, RNF170 / RFU, ZNF28 / Fold change vs veh, ZNF28 / RFU, RNGTT / Fold change vs veh, RNGTT / RFU, OGT / Fold change vs veh, OGT / RFU, BRD1 / Fold change vs veh, BRD1 / RFU, MARS / Fold change vs veh, MARS / RFU, ZNF655 / Fold change vs veh, ZNF655 / RFU, FAHD1 / Fold change vs veh, FAHD1 / RFU, BDP1 / Fold change vs veh, BDP1 / RFU, LRRCC1 / Fold change vs veh, LRRCC1 / RFU, ARID1A / Fold change vs veh, ARID1A / RFU, ZNF146 / Fold change vs veh, ZNF146 / RFU, ZNF330 / Fold change vs veh, ZNF330 / RFU, GPN3 / Fold change vs veh, GPN3 / RFU, C9orf123 / Fold change vs veh, C9orf123 / RFU, N4BP2L2 / Fold change vs veh, N4BP2L2 / RFU, ARFIP1 / Fold change vs veh, ARFIP1 / RFU, FAM179B / Fold change vs veh, FAM179B / RFU, BCL10 / Fold change vs veh, BCL10 / RFU, UHRF1BP1L / Fold change vs veh, UHRF1BP1L / RFU, BET1 / Fold change vs veh, BET1 / RFU, CNOT2 / Fold change vs veh, CNOT2 / RFU, ZNF268 / Fold change vs veh, ZNF268 / Fold change vs veh, ZNF507 / RFU, DGCR2 / Fold change vs veh, DGCR2 / RFU, WDSUB1 / Fold change vs veh, WDSUB1 / Fold change vs veh, HSP90B1 /// MIR3652 / RFU, ADSS / Fold change vs veh, ADSS / RFU, GK / Fold change vs veh, GK / RFU, ZNF148 / Fold change vs veh, ZNF148 / RFU, TAF9 / Fold change vs veh, TAF9 / RFU, SLC1A5 / Fold change vs veh, SLC1A5 / RFU, SLMO2 / Fold change vs veh, SLMO2 / RFU, ABCC4 / Fold change vs veh, ABCC4 / RFU, LOC101060439 /// RAP1B / Fold change vs veh, LOC101060439 /// RAP1B / RFU, RFX7 / Fold change vs veh, RFX7 / RFU, GTPBP10 / Fold change vs veh, GTPBP10 / RFU, CNEP1R1 / Fold change vs veh, CNEP1R1 / RFU, BIVM-ERCC5 /// ERCC5 / Fold change vs veh, BIVM-ERCC5 /// ERCC5 / RFU, ILF3 / Fold change vs veh, ILF3 / RFU 11762660_at / Fold change /veh 11762660_at / RFU VCAN (11757783_s_at) / Fold change /veh VCAN (11757783_s_at) / RFU DDX43 (11728927_at) / Fold change /veh DDX43 (11728927_at) / RFU KRT8 (11758188_x_at) / Fold change /veh KRT8 (11758188_x_at) / RFU NKD1 (11759106_at) / Fold change /veh NKD1 (11759106_at) / RFU SRD5A1 (11742802_a_at) / Fold change /veh SRD5A1 (11742802_a_at) / RFU TPSAB1 /// TPSB2 (11721975_s_at) / Fold change /veh TPSAB1 /// TPSB2 (11721975_s_at) / RFU GSTM3 (11746129_a_at) / Fold change /veh GSTM3 (11746129_a_at) / RFU IL23R (11737362_x_at) / Fold change /veh IL23R (11737362_x_at) / RFU TMEM51 (11727254_a_at) / Fold change /veh TMEM51 (11727254_a_at) / RFU PIWIL2 (11732686_x_at) / Fold change /veh PIWIL2 (11732686_x_at) / RFU ORM1 (11744905_x_at) / Fold change /veh ORM1 (11744905_x_at) / RFU CCDC152 (11743942_at) / Fold change /veh CCDC152 (11743942_at) / RFU ECM1 (11717891_a_at) / Fold change /veh ECM1 (11717891_a_at) / RFU IL23R (11748794_a_at) / Fold change /veh IL23R (11748794_a_at) / RFU TNFAIP8L3 (11732012_x_at) / Fold change /veh TNFAIP8L3 (11732012_x_at) / RFU MBOAT4 (11741988_at) / Fold change /veh MBOAT4 (11741988_at) / RFU 11764193_at / Fold change /veh 11764193_at / RFU TMEM53 (11763286_at) / Fold change /veh TMEM53 (11763286_at) / RFU MAGEB2 (11727129_at) / Fold change /veh MAGEB2 (11727129_at) / RFU TMEM200A (11744735_a_at) / Fold change /veh TMEM200A (11744735_a_at) / RFU CCDC152 (11751479_a_at) / Fold change /veh CCDC152 (11751479_a_at) / RFU FAM211A (11726209_a_at) / Fold change /veh FAM211A (11726209_a_at) / RFU RGS16 (11746705_a_at) / Fold change /veh RGS16 (11746705_a_at) / RFU VCAN (11755009_s_at) / Fold change /veh VCAN (11755009_s_at) / RFU RHOB (11743442_s_at) / Fold change /veh RHOB (11743442_s_at) / RFU RGS16 (11720943_a_at) / Fold change /veh RGS16 (11720943_a_at) / RFU RGS16 (11720944_at) / Fold change /veh RGS16 (11720944_at) / RFU, VPS4B / Fold change vs veh, VPS4B / RFU, CREB1 / Fold change vs veh, CREB1 / RFU, DNAJC13 / Fold change vs veh, DNAJC13 / RFU, GNAQ / Fold change vs veh, GNAQ / RFU, CDK5R1 / Fold change vs veh, CDK5R1 / RFU, ZRANB3 / Fold change vs veh, ZRANB3 / RFU, CUL4A / Fold change vs veh, CUL4A / RFU, CCNY / Fold change vs veh, CCNY / RFU, UFL1 / Fold change vs veh, UFL1 / RFU, COG3 / Fold change vs veh, COG3 / RFU, DIAPH2 / Fold change vs veh, DIAPH2 / RFU, SKA2 / Fold change vs veh, SKA2 / RFU, AFF3 / Fold change vs veh, AFF3 / RFU, LMF1 / Fold change vs veh, LMF1 / RFU, IPO11 / Fold change vs veh, IPO11 / RFU, DFFB / Fold change vs veh, DFFB / RFU, FOXP1 / Fold change vs veh, FOXP1 / RFU, CARD8 / Fold change vs veh, CARD8 / RFU, STRN3 / Fold change vs veh, STRN3 / RFU, ADK / Fold change vs veh, ADK / RFU, RASSF2 / Fold change vs veh, RASSF2 / RFU, WIPF1 / Fold change vs veh, WIPF1 / RFU, LARP1B / Fold change vs veh, LARP1B / RFU, RASA1 / Fold change vs veh, RASA1 / RFU, RB1 / Fold change vs veh, RB1 / RFU, PPFIA1 / Fold change vs veh, PPFIA1 / RFU, MAT2A / Fold change vs veh, MAT2A / RFU, CCT5 / Fold change vs veh, CCT5 / RFU, WDR92 / Fold change vs veh, WDR92 / RFU, CUX1 / Fold change vs veh, CUX1 / RFU, TTC7A / Fold change vs veh, TTC7A / RFU, TMEM135 / Fold change vs veh, TMEM135 / RFU, DEPTOR / Fold change vs veh, DEPTOR / RFU, CPM / Fold change vs veh, CPM / RFU, DNAJB6 / Fold change vs veh, DNAJB6 / RFU, CACNA2D3 / Fold change vs veh, CACNA2D3 / RFU, DTX4 / Fold change vs veh, DTX4 / RFU, TFCP2 / Fold change vs veh, TFCP2 / RFU, GMCL1 /// GMCL1P1 / Fold change vs veh, GMCL1 /// GMCL1P1 / RFU, AEBP2 / Fold change vs veh, AEBP2 / RFU, SNHG1 /// SNORD22 /// SNORD25 /// SNORD26 /// SNORD27 /// SNORD28 /// SNORD29 /// SNORD31 / Fold change vs veh, SNHG1 /// SNORD22 /// SNORD25 /// SNORD26 /// SNORD27 /// SNORD28 /// SNORD29 /// SNORD31 / Fold change (Aza/veh), C12orf56 (ProbeSet 11735607_a_at) / Fold change (ACY-1035/veh), C12orf56 (ProbeSet 11735607_a_at) / Fold change (Aza/veh), FGFR1OP (ProbeSet 11751329_s_at) / Fold change (ACY-1035/veh), FGFR1OP (ProbeSet 11751329_s_at) / Fold change (Aza/veh), VPS36 (ProbeSet 11739960_a_at) / Fold change (ACY-1035/veh), VPS36 (ProbeSet 11739960_a_at) / RFU SYPL1 (11715823_x_at) / Fold change /veh SYPL1 (11715823_x_at) / RFU IGFBP7 (11715501_s_at) / Fold change /veh IGFBP7 (11715501_s_at) / RFU REEP3 (11722064_at) / Fold change /veh REEP3 (11722064_at) / RFU IGLL1 (11728026_x_at) / Fold change /veh IGLL1 (11728026_x_at): dose or concentration left out as unconfirmed
Settings: ProbeSet 11716844_s_at; LIST D

In the case of `Nc1ncn([C@@H]2O[C@H](CO)[C@@H](O)[C@H]2O)c(=O)n1` [azacitidine], the “Fold change vs veh, DNAJC13” value is reported as 0.78.
